In patent US20090082326A1, “SOLUBLE DOSAGE FORMS CONTAINING CEPHEM DERIVATIVES SUITABLE FOR PARENTERAL ADMINISTRATION” (Forest Laboratories Holdings Limited, priority 2007, published 2009):
Values after ≈ are worked out from the molar mass of the structure shown. Structures can show the parent of a compound that is named as a salt.

Experiments:
[1] = Part A: single-dose IM injection and IV infusion pharmacokinetic study in healthy human subjects; assay type: in vivo; details: for Mean AUC0-∞ / Mean Cmax / Mean Tmax: prodrug; for AUC(0-inf): AUC0-∞; for half-life: T1/2
Method: (§1) The pharmacokinetic parameters described herein include area under the plasma concentration-time curve (AUC0-t and AUC0-∞), maximum plasma concentration (Cmax), and time of maximum plasma concentration (Tmax). Terminal elimination half-life (T1/2) may also be provided. The time of maximum concentration, Tmax, is determined as the time corresponding to Cmax. Area under the plasma concentration-time curve up to the time corresponding to the last measurable concentration (AUC0-t) is calculated by numerical integration using the linear trapezoidal rule as follows:
(§2) This was a two-part randomized, single and multiple-dose study to determine pharmacokinetics of ceftaroline fosamil and its the active moiety, ceftaroline, administered parenterally (both intramuscular injection and intravenous injection).
(§3) Part A of the study was a single-dose open-label study. Part B of the study was a multiple-dose study.
Twenty four subjects (six subjects per treatment group) were randomized to one of four treatment groups (A-D): The following doses were administered using vials containing 668 mg ceftaroline fosamil (USAN, molecular formula C22H21N8O8PS4.C2H4O2.H2O, molecular weight 762.75).
(§4) The duration of the study for Treatment Groups E and F was 11 days (Days-1 through 10). Ceftaroline dosing solutions for IM injection were prepared using sterile water for injection.
(§5) The pharmacokinetic parameters for ceftaroline fosamil and ceftaroline were determined using a standard assay. Blood for pharmacokinetic parameter analysis was collected from all subjects as follows: The first blood sample was collected at about 5 minutes (about 0.06 hours) after completion of the administration. Measurement was considered essentially zero prior to this point.
(§6) Part A: 5, 15, and 30 minutes and 1, 2, 4, 6, 8, 12, 18, 24, 36 and 48 hours after injection. In addition, blood were be collected from subjects receiving IV infusion immediately prior to drug injection on day 8 and at 20, 40, 60 (immediately before the end of the study-drug infusion), 65 and 75 minutes, and 1.5, 2, 3, 4, 6, 8, 12, 24, 36 and 48 hours after the start of the drug infusion on Day 8. Part B: Drug injection on Days 1 and 5, at 5, 15, and 30 minutes and 1, 2, 4, 6, […] after the first injection on Day 1, immediately prior to (within 15 minutes) of injection of morning dose on Day 4, at 12 hours post Day 4 morning dose (before evening dose) and at 5, and 30 minutes and 1, 2, 4, 6, 8, 12, 24, 36 and 48 hours after the last (morning) injection on Day 5.

[2] = Part B: multiple-dose IM injection pharmacokinetic study in healthy human subjects; assay type: in vivo
Method: as §1, §2, §3
Eighteen subjects were randomized to one of two treatment groups The IM injection was be administered to the alternating side of the gluteus in each subject.
as §4, §5, §6

[3] = Linear calculated pharmacokinetic parameters following single dose IM injection; assay type: in vivo, human; details: for Mean AUC0-∞ / Mean Cmax / Mean Tmax: prodrug, 228 mg/mL, calculated on linear assumptions; for AUC(0-inf) / Cmax / Tmax: human, in vivo, im
Source text: The AUC0-∞ and Cmax values increase or decrease proportionally with the dosage of ceftaroline fosamil. Thus, one skilled in the art with the benefit of this disclosure may readily determine pharmacokinetic parameters for any specific dosage of ceftaroline fosamil (or other prodrugs of ceftaroline) used in a particular dosage form of the invention. The pro-drug in the blood is converted rapidly to the active moiety ceftaroline.
Linear calculated pharmacokinetic parameters for ceftaroline following single dose IM injection of ceftaroline fosamil using vials containing 668 mg ceftaroline fosamil (USAN) at 228 mg/mL, defined per Table 23 are shown in Table 26.
Linear calculated pharmacokinetic parameters for ceftaroline fosamil (INN) following single dose IM injection of ceftaroline fosamil USAN (at concentration of ceftaroline fosamil (anhydrous, acetate free basis of 228 mg/mL, defined per Table 23) are shown in Table 27.

[4] = Aqueous solubility (stated in the description); assay type: physicochemical; details: water
[5] = system: aerobic and some anaerobic Gram-positive and Gram-negative bacteria; assay: In vitro antimicrobial spectrum (MIC90); assay type: cell-based; details: read-out: minimum inhibitory concentration which inhibits 90% of the microbial strains in a given species (MIC90)
[6] = prodrug in plasma, Treatment A: 400 mg (INN) IM, 228 mg/mL
[7] = prodrug in plasma, Treatment B: 600 mg (INN) IM, 165 mg/mL
[8] = prodrug in plasma, Treatment C: 600 mg (INN) IM, Day 1, 228 mg/mL
[9] = prodrug in plasma, Treatment C: 600 mg (INN) IV infusion over 60 mins, Day 8
[10] = prodrug in plasma, Treatment D: 1000 mg (INN) IM, 228 mg/mL
[11] = single dose IM ceftaroline fosamil (USAN) 446 mg (≡400 mg INN), 228 mg/mL
[12] = single dose IM ceftaroline fosamil (USAN) 668 mg (≡600 mg INN), 228 mg/mL
[13] = single dose IM ceftaroline fosamil (USAN) 1114 mg (≡1000 mg INN), 228 mg/mL
[14] = prodrug in plasma, Treatment E: 600 mg (INN) IM q12h, Day 5, 228 mg/mL
[15] = prodrug in plasma, Treatment E: 600 mg (INN) IM, Day 1, 228 mg/mL
[16] = single dose IM ceftaroline fosamil (USAN) 223 mg (≡200 mg INN)
[17] = single dose IM ceftaroline fosamil (USAN) 557 mg (≡500 mg INN)
[18] = single dose IM ceftaroline fosamil (USAN) 891 mg (≡800 mg INN)
[19] = single dose IM ceftaroline fosamil (USAN) 1337 mg (≡1200 mg INN)
[20] = single dose IM ceftaroline fosamil (USAN) 2005 mg (≡1800 mg INN)
[21] = human, in vivo, im, 600 mg, AUC0-t

Compound: CCO/N=C(\C(=O)N[C@@H]1C(=O)N2C(C(=O)[O-])=C(Sc3nc(-c4cc[n+](C)cc4)cs3)CS[C@H]12)c1nsc(NP(=O)(O)O)n1 [Ceftaroline Fosamil (INN), 4-[2-[[(6R,7R)-2-carboxy-7-[[2(Z)-ethoxyimino-[5-(phosphonoamino)-1,2,4-thiadiazol-3-yl]acetyl]amino]-8-oxo-5-thia-1-azabicyclo[4.2.0]oct-2-en-3-yl]thio-4-thiazolyl]-1-methyl-, inner salt]
- more bioavailable than an IV solution of the same strength ([1]; 600 mg (INN) IM solution at 165 mg/mL vs IV): over 50%
- AUC0-t [1, 6]: 1950 ± 401 ng·h/mL
- AUC0-∞ [1, 6]: 2144 ± 421 ng·h/mL
- Cmax [1, 6]: 1113 ± 418 ng/mL
- T1/2 [1, 6]: 1.21 ± 0.49 h
- Tmax [1, 6]: 0.29 h
- AUC0-t [1, 7]: 4846 ± 975 ng·h/mL
- AUC0-∞ [1, 7]: 5118 ± 985 ng·h/mL
- Cmax [1, 7]: 2722 ± 557 ng/mL
- T1/2 [1, 7]: 1.06 ± 0.33 h
- Tmax [1, 7]: 0.75 h
- AUC0-t [1, 8]: 3060 ± 475 ng·h/mL
- AUC0-∞ [1, 8]: 3242 ± 486 ng·h/mL
- Cmax [1, 8]: 1492 ± 275 ng/mL
- T1/2 [1, 8]: 1.57 ± 0.41 h
- Tmax [1, 8]: 0.50 h
- AUC0-t [1, 9]: 2734 ± 340 ng·h/mL
- AUC0-∞ [1, 9]: 2744 ± 344 ng·h/mL
- Cmax [1, 9]: 3549 ± 465 ng/mL
- T1/2 [1, 9]: 0.07 ± 0.03 h
- Tmax [1, 9]: 0.67 h
- AUC0-t [1, 10]: 5791 ± 2795 ng·h/mL
- AUC0-∞ [1, 10]: 6229 ± 2829 ng·h/mL
- Cmax [1, 10]: 2239 ± 657 ng/mL
- T1/2 [1, 10]: 1.87 ± 0.90 h
- Tmax [1, 10]: 0.38 h
- Mean AUC0-∞ [1, 11]: 2144 ng·h/mL
- Mean Cmax [1, 11]: 1113 ng/mL
- Mean Tmax [1, 11]: 0.29 h
- Mean AUC0-∞ [1, 12]: 3242 ng·h/mL
- Mean Cmax [1, 12]: 1492 ng/mL
- Mean Tmax [1, 12]: 0.5 h
- Mean AUC0-∞ [1, 13]: 6229 ng·h/mL
- Mean Cmax [1, 13]: 2238 ng/mL
- Mean Tmax [1, 13]: 0.5 h
- AUC0-t [2, 14]: 4067 ± 782 ng·h/mL
- Cmax [2, 14]: 2223 ± 497 ng/mL
- T1/2 [2, 14]: 1.11 ± 0.35 h
- Tmax [2, 14]: 0.50 h
- AUC0-t [2, 15]: 3096 ± 850 ng·h/mL
- Cmax [2, 15]: 1575 ± 507 ng/mL
- T1/2 [2, 15]: 1.17 ± 0.52 h
- Tmax [2, 15]: 0.50 h
- Mean AUC0-∞ [3, 16]: 1162 ng·h/mL
- Mean Cmax [3, 16]: 484 ng/mL
- Mean Tmax [3, 16]: 0.3 h
- Mean AUC0-∞ [3, 17]: 2905 ng·h/mL
- Mean Cmax [3, 17]: 1210 ng/mL
- Mean Tmax [3, 17]: 0.5 h
- Mean AUC0-∞ [3, 18]: 4648 ng·h/mL
- Mean Cmax [3, 18]: 1936 ng/mL
- Mean Tmax [3, 18]: 0.5 h
- Mean AUC0-∞ [3, 19]: 6972 ng·h/mL
- Mean Cmax [3, 19]: 2904 ng/mL
- Mean Tmax [3, 19]: 0.5 h
- Mean AUC0-∞ [3, 20]: 10458 ng·h/mL
- Mean Cmax [3, 20]: 4356 ng/mL
- Mean Tmax [3, 20]: 0.5 h

Compound: CCO/N=C(\C(=O)N[C@@H]1C(=O)N2C(C(=O)[O-])=C(Sc3nc(-c4cc[n+](C)cc4)cs3)CS[C@H]12)c1nsc(N)n1 [Ceftaroline, ceftaroline]
- AUC greater at 165 mg/mL than at 228 mg/mL ([1]; human, in vivo): ~56%
- Bioavailability (absolute) ([1]; human, in vivo): 107 ± 7.1%
- Cmax greater at 165 mg/mL than at 228 mg/mL ([1]; human, in vivo): approximately 72%
- bioavailability ([1]; human, in vivo, Bioavailability (absolute)): ~100%
- Cmax ([1]; human, in vivo, im, 400 mg): 6971 ± 1616 ng/mL
- Tmax ([1]; human, in vivo, im, 400 mg): 1.5 (1.0-2.0) h
- AUC0-t ([1]; human, in vivo, im, 400 mg, AUC0-t): 35300 ± 6160 ng·h/mL
- AUC(0-inf) ([1]; human, in vivo, im, 400 mg): 35600 ± 6130 ng·h/mL
- half-life ([1]; human, in vivo, im, 400 mg): 2.36 ± 0.22 h
- AUC0-t ([1]; human, in vivo, im, 600 mg): 73439 ± 12080 ng·h/mL
- AUC0-∞ ([1]; human, in vivo, im, 600 mg): 73826 ± 12031 ng·h/mL
- T1/2 ([1]; human, in vivo, im, 600 mg): 2.27 ± 0.16 h
- Tmax ([1]; human, in vivo, im, 600 mg): 2.0 (1.2-2.0) h
- AUC0-t [1, 21]: 47500 ± 4010 ng·h/mL
- AUC(0-inf) ([1]; human, in vivo, im, 600 mg): 48100 ± 3850 ng·h/mL
- half-life ([1]; human, in vivo, im, 600 mg): 2.55 ± 0.49 h
- Tmax ([1]; human, in vivo, im, 600 mg, Tmax): 2 h
- Cmax ([1]; human, in vivo, im, 1000 mg): 15997 ± 3739 ng/mL
- AUC0-t ([1]; human, in vivo, im, 1000 mg, AUC0-t): 110000 ± 31300 ng·h/mL
- AUC(0-inf) ([1]; human, in vivo, im, 1000 mg): 110000 ± 31300 ng·h/mL
- half-life ([1]; human, in vivo, im, 1000 mg): 2.68 ± 0.31 h
- Tmax ([1]; human, in vivo, im, 1000 mg, Tmax): 2 h
- Tmax ([1]; human, in vivo, im, Mean Tmax): 2 h
- Tmax ([1]; human, in vivo, im, Tmax following IM injection): 1 to 2 h
- Tmax ([1]; human, in vivo, iv): 1.0 (1.0-1.0) h
- half-life ([1]; human, in vivo, iv): 2.13 ± 0.31 h
- Tmax ([1]; human, in vivo, iv, Tmax following IV infusion): ~1 h
- AUC0-t ([2]; human, in vivo, im, 600 mg): 65407 ± 11807 ng·h/mL
- T1/2 ([2]; human, in vivo, im, 600 mg): 2.51 ± 0.45 h
- AUC0-t [2, 21]: 55300 ± 11100 ng·h/mL
- half-life ([2]; human, in vivo, im, 600 mg, T1/2): 2.54 ± 0.63 h
- AUC(0-inf) ([3]; 223 mg): 17800 ng·h/mL
- Cmax ([3]; 223 mg): 3490 ng/mL
- Tmax ([3]; 223 mg): 1.5 h
- AUC(0-inf) ([3]; 557 mg): 43200 ng·h/mL
- Cmax ([3]; 557 mg): 7900 ng/mL
- Tmax ([3]; 557 mg): 2 h
- AUC(0-inf) ([3]; 891 mg): 81800 ng·h/mL
- Cmax ([3]; 891 mg): 12600 ng/mL
- Tmax ([3]; 891 mg): 2 h
- AUC(0-inf) ([3]; 1337 mg): 133000 ng·h/mL
- Cmax ([3]; 1337 mg): 18800 ng/mL
- Tmax ([3]; 1337 mg): 2 h
- AUC(0-inf) ([3]; 2005 mg): 211000 ng·h/mL
- Cmax ([3]; 2005 mg): 28100 ng/mL
- Tmax ([3]; 2005 mg): 2 h
- solubility [4]: 2000 to 3000 µg/mL (≈ 3.31 to 4.96 mM)
- MIC90 [5]: ≤ 2000 µg/mL
